Test results taken from patent publication US12036212B2, “Enhancement of tumor response to chemotherapy by activation of the asmase/ceramide pathway through timed administration of a short-acting anti-angiogenic agent” (Memorial Sloan-Kettering Cancer Center, priority 2014, dated 2024).

Key:
CRM = CRM detection by confocal microscopy in BAEC; format: cell-based, bovine; details: paclitaxel 100 nM
Procedure: BAEC were grown on CC2-treated chamber slides (Nalge Nunc International Corp., Naperville, USA) and then exposed to etoposide or paclitaxel with or without pre-incubation with Nystatin (30 μg/ml, Sigma) for 30 min. BAEC were then washed in cold PBS, fixed for 15 min in fresh 2% paraformaldehyde, washed 2× with cold PBS, and blocked with 5% FBS in PBS for 20 min at room temperature. Cells were stained with anti-ceramide MID 15B4 IgM (Alexis Corporation) at 1:50 dilution for 1 hour at room temperature, washed 3× in PBS, and thereafter with Texas Red-conjugated secondary antibody (Jackson Immunoresearch Laboratories, Inc.) at 1:500 dilution for 1 hour at room temperature. Nonspecific fluorescence was excluded using isotype control IgM (BD Biosciences). Cells were washed 3×, stained with DAPI and mounted in 0.1% paraphenylenediamine. Fluorescence was detected using Leica TCS SP2 AOBS 1- and 2-photon laser scanning confocal (DMRXA2 upright stand) microscope coupled with MetaMorph 7.5 (Molecular Devices). Number of CRMs in membranes of endothelial cells was analyzed using MetaMorph 7.5 software that allowed outlining of regions containing CRMs based on two criteria: 1) CRM size (≥500 nm); 2) Intensity of ceramide staining. Mice: asmase^+/+ and asmase^−/− mice, maintained in a SCID background, were propagated using heterozygous breeding pairs and genotyped as previously described (Santana et al. Cell, 86, 189-199, 1996; Grassme et al. Nat Med 9, 322-330 (2003). 6-12 week-old C57BL6/SV129 male mice, purchased from The Jackson Laboratory (Bar Harbor).
To test the effect of chemotherapy on ASMase signaling and ceramide production, BAEC were treated with paclitaxel (100 nM) and ASMase activity was determined by radioenzymatic assay (Rotolo et al, infra) using [^14C-methylcholine] sphingomyelin (Amersham) as substrate (FIG. 1A). Induction of ASMase activity was observed within 5 minutes after treatment, and the activation continued for 30 minutes. Ceramide generation was monitored using the diacylglycerol kinase assay (Stancevic et al. PLoS ONE 8, e69025, 2013). […]

[1] = test system: HCT116 human colorectal cancer xenografts; assay: Endothelial apoptosis in vivo (TUNEL/MECA-32) in HCT116 xenografts; design: species or system mice; details: single dose paclitaxel 25 mg/kg, 4 hours
Procedure: Human HCT-116 colon cancer cells and MCA/129 murine sarcoma cells were maintained in DMEM with 10% fetal bovine serum, with 100 u/ml penicillin and 100 μg/ml streptomycin. Cells were grown as monolayers in 75 cm^2 culture flasks at 37° C. in 10% CO2 humidified incubators. Cells were trypsinized, washed in PBS and diluted in Matrigel/PBS solution (40:60 v/v) for HCT-116 xenografts or in PBS for MCA/129 syngeneic tumor grafts. Cells (3×10^6 for HCT-116 or 1×10^6 for MCA129) were injected subcutaneously into the flanks of mice (Garcia-Barros et al. Science 300, 1155-1159, 2003).
To evaluate acute endothelial apoptosis, tumors were grown in mice and treated with drugs as above. After the first treatment, tumors were harvested at specified times, placed into formalin overnight and paraffin-embedded the next day. Paraffin-embedded sections (5 μm) were co-stained for apoptotic endothelium using TUNEL and the endothelial-specific monoclonal antibody MECA-32 (Developmental Studies Hybridoma Bank, developed under the auspices of the NICHD and maintained by The University of Iowa, IA). […]
To further test the ability of cisplatin to affect endothelial cell apoptosis and tumor response in vivo, effects of cisplatin on tumor growth were evaluated.

BAEC = assay: Apoptosis in vitro (Hoechst nuclear staining) in BAEC; format: cell-based, bovine; details: bovine endothelial cells; cisplatin up to 50 μM; etoposide 50 μM alone, 8 hours
Procedure: Apoptosis was assessed in vitro by examining morphologic changes in nuclear chromatin using bis-benzimide trihydrochloride (Hoechst #33258; Sigma-Aldrich, Milwaukee WI). BAEC and HCAEC monolayer cultures were first detached using 0.25% trypsin and 0.02% EDTA in HBSS and then combined with the floating population of cells. The cell pellet was washed in PBS, resuspended in 3% paraformaldehyde, and incubated for 10 min at 22° C. Following the removal of fixative, cells were resuspended in PBS containing 8 μg/ml of Hoechst-33258. Following a 15-min incubation at 22° C., cells were placed on a glass slide, and scored for the incidence of apoptotic chromatin changes using fluorescence microscope.
Since the ASMase/ceramide pathway is known to play a critical role in endothelial injury and dysfunction, BAEC and HCAEC were treated with paclitaxel (100 nM), etoposide (50 μM), and cisplatin (0.1-50 μM), and endothelial apoptosis was assessed.
To set the basis for experiments involving evaluation of anti-angiogenic therapy in combination with chemotherapy, and the role of ASMase/ceramide pathway in this process, the effects of various factors on the chemotherapy induced cell death were assessed. BAEC were pre-incubated for 30 min with bFGF (2 ng/mL), VEGF (2 ng/mL) or nystatin (30 μg/mL) prior to treatment with etoposide (50 μM), and apoptosis was evaluated after 8 hours using bis-benzamide trihydrochloride staining (FIG. 3).

human cells = details: cited from earlier work

Row | Structure (SMILES) | CRM formation peak time (CRM) [min] | CRM formation remained elevated for (CRM) [min] | Tumor endothelial apoptosis ([1]; SCID asmase+/+) | Tumor endothelial apoptosis ([1]; SCID asmase−/−) | Apoptotic response (BAEC) | ASMase (human cells) | Apoptosis (human cells)
1 | CC(=O)O[C@H]1C(=O)[C@@]2(C)[C@H]([C@H](OC(=O)c3ccccc3)[C@]3(O)C[C@H](OC(=O)[C@H](O)[C@@H](NC(=O)c4ccccc4)c4ccccc4)C(C)=C1C3(C)C)[C@]1(OC(C)=O)CO[C@@H]1C[C@@H]2O [paclitaxel] | 5 | 30 | robust endothelial apoptosis | resistant to chemotherapy-induced endothelial cell apoptosis |  |  | 
2 | N.N.[Cl][Pt][Cl] [cisplatin] |  |  |  |  | failed to trigger an appropriate apoptotic response | increase ASMase | induce apoptosis
